Measurements reported in US20250170239A1, “CELLULAR REPROGRAMMING BY TARGETING THE GOLGI APPARATUS” (MUSC Foundation for Research Development, priority 2023, published 2025).

Legend:
[1] = in culture; cited from earlier work
[2] = tested on: Pmel T cells
Procedure: (FIG. 18C) NAD+ and nicotinamide quantification from metabolomics dataset. (FIG. 18D) SIRT1 deacetylase activity in activated Pmel T cells (means of normalized OD values). (FIGS. 18E and 18F) Pmel T cells were activated with gp100 for 3 days in the presence of vehicle, GYY4137 (0.5 mM), or GYY4137+sirt1 inhibitor EX527 (10 μM). (FIG. 18E) Nuclear and cytoplasmic protein fractions were isolated and western blot analysis was performed to determine relative expression of nuclear and cytoplasmic Foxo1 (n=3). (FIG. 18F) Expression of CD62L and CD44 analyzed by FACS (n=3). (FIG. 18G) Splenocytes from wildtype and Cbs-knockout mice+/−GYY4137 activated with anti-CD3 and anti-CD28 antibodies followed by intranuclear staining for Foxo1. (FIG. 18H) Pmel T cells activated and expanded for metabolic flux analysis. Quantification of oxygen consumption rate (OCR), spare respiratory capacity (SRC), maximal respiration, and basal respiration (n=10 experimental replicates representative of 3 separate experiments). (FIG. 18I) Pmel T cells activated and expanded to day 5 for characterization of mitochondria using FACS, quantified by MFI values for mitoFM Deep Red, TMRM, and mitoSOX dyes (n=4). (FIG. 18J) Representative confocal microscopy images of mitochondria from control or H2S-treated T cells. (FIG. 18K) Human CD19 CAR-T cells expanded for 3 days with IL2+/−0.5 mM GYY4137 and collected for metabolic flux analysis. Shown is the quantification of mean oxygen consumption rate (OCR), spare respiratory capacity (SRC), maximal respiration, and basal respiration.
Alexa Fluor 488 (anti-Giantin) and Alexa Fluor 647 (anti-TOMM20) fluorescence were imaged in a Zeiss LSM 880 NLO inverted laser scanning confocal microscope (Thornwood, NY) using a 63× 1.4 N.A. plan-apochromat oil immersion lens. Alexa Fluor 488 and Alexa Fluor 647 were excited at 488 nm and 633 nm, respectively. Emitted light was detected with an Airyscan super-resolution detector at BP 495-550 nm for Giantin label and LP 654 nm for TOMM20. Z-stack Airyscan images were processed using the Huygens Professional deconvolution and image analysis software (Scientific Volume Imaging, The Netherland). After images were deconvolved using Huygens' Deconvolution Express (Standard Profile) that determines optimal parameters, 3D surface rendering of deconvolved images with watershed augmentation using Huygens' Surface Renderer was performed.

[3] = tested on: TILs isolated from B16-F10 tumors; details: expanded +/− GYY4137
Procedure: To obtain tumor-infiltrating T cells (TILs) from subcutaneously established solid B16-F10 melanoma-bearing mice, tumors were excised, chopped finely using tweezers and scissors, and then digested with 2 mg/ml collagenase type IV (Stemcell Technologies, Vancouver, BC) for 45 min. The tumors were filtered through […] (BD Biosciences, San Jose, CA). The cell suspension was washed in culture medium twice by centrifugation at 1500 rpm for 10 min at 4° C. After the second wash, the cells were re-suspended in 6 ml PBS and layered carefully over 3 ml Ficoll-paque (GE Healthcare) followed by centrifugation at 1500 rpm for 30 min at room temperature. The enriched TILs obtained at the interface as a thin buffy layer were washed with PBS twice and finally re-suspended in FACS staining buffer for further staining procedures.

[4] = tested on: phospho-PERK, phospho-IRE1a, ATF4; details: 12-hr incubation with 50 mM H2O2
[5] = tested on: Tet; details: CD8+ T cells with or without 0.5 mM GYY4137
Procedure: On day 3, the cells were collected and TET activity was assessed using nuclear protein extract from CD8+ T cells treated with or without 0.5 mM GYY4137.

[6] = tested on: Pmel T cells; details: activated in presence of H2S donor
Procedure: Oxygen consumption rate (OCR) and extracellular acidification rate (ECAR) were determined using the Seahorse Xfe96 analyzer (Agilent Technologies, Santa Clara, CA). Briefly, T cells (0.5×10^6/well) were plated on a Cell-Tak coated Seahorse culture plate for 30 min. OCR, a measure of OXPHOS, was analyzed under basal condition, or in response to 1.0 μM oligomycin, 1.0 μM fluoro-carbonyl cyanide phenylhydrazone (FCCP) and 2 μM rotenone, plus 100 nM antimycin A. ECAR, a measure of glycolysis, was measured under basal conditions and in response to glucose (5.5 mM), Oligomycin (1.0 μM), and 2-deoxyglucose (2-DG) (100 mM). All reagents were purchased from Sigma-Aldrich, St. Louis, MO.

[7] = tested on: Pmel CD8+ T cells; details: 3 days gp100 and IL2 +/− 0.5 mM GYY4137
Procedure: Next, the effect of H2S treatment on the transcriptomic profile of anti-tumor T cells was determined. Pmel CD8+ T cells were activated and expanded in the presence or absence of the H2S donor prior to RNA-sequencing.
Cells were immediately pelleted by centrifugation at 4° C. and resuspended in 1 mL Trizol. RNA concentration was measured using a NanoDrop 8000. RNA quality was assessed using an Agilent 4200 TapeStation and RINe values ranged from 9.7-10. […] Dual-indexed libraries were pooled to and sequenced at VANTAGE (Vanderbilt University Medical Center) on an Illumina NovaSeq 6000 (S4 flow cell) to a depth of approximately 25 million paired-end 150 bp reads per library. Reads were aligned to the mouse mm10 reference genome using STAR (v2.7.1a). Only uniquely mapped reads were retained for further analyses. Quality control metrics were assessed by Picard tool (http://broadinstitute.github.io/picard/). Gencode annotation for mm10 (version M25) was used as reference alignment annotation and downstream quantification. Gene level expression was calculated using featureCounts (v2.0.1). Counts were calculated based on protein-coding genes from the annotation file. Counts were normalized using counts per million reads (CPM). Genes with no reads in either Control or Treated samples were removed. […]

[8] = tested on: human PBMCs; details: vehicle control or 0.5 mM GYY4137
Procedure: (FIG. 21A) Levels of intracellular glutathione assessed using FACS by employing ThiolTracker Violet dye in control CD19 CAR-T cells or CAR-T cells overexpressing Cbs (CbstdCD19-CAR-T) (n=3). (FIG. 21B) 12 hour Thapsigargin (700 nM) treatment was used to induce ER stress in WT T cells, Cbs-KO T cells, and Cbs-KO T cells+H2S. Levels of phosphorylated PERK were assessed by FACS (n=3). (FIG. 21C) Pmel T cells were treated with either Thapsigargin (700 nM) or Monensin (1 mM) for 12 hours, followed by staining for phosphorylated PERK (p-PERK) and GM130 to assess ER stress and Golgi stress, respectively (n=4). (FIG. 21D) Activated Pmel T cells were treated for 12 hours with either vehicle control or 1 mM Monensin (“+Golgi stress”) before being stained for giantin to assess Golgi dispersion. […] (FIG. 21E) Representative confocal microscopy images of mitochondria (Tom20) and Golgi (giantin) in human PBMCs treated with vehicle control or 0.5 mM GYY4137.
Alexa Fluor 488 (anti-Giantin) and Alexa Fluor 647 (anti-TOMM20) fluorescence were imaged in a Zeiss LSM 880 NLO inverted laser scanning confocal microscope (Thornwood, NY) using a 63× 1.4 N.A. plan-apochromat oil immersion lens. Alexa Fluor 488 and Alexa Fluor 647 were excited at 488 nm and 633 nm, respectively. Emitted light was detected with an Airyscan super-resolution detector at BP 495-550 nm for Giantin label and LP 654 nm for TOMM20. […]

[9] = tested on: Pmel CD8+ T cells; assay: FACS phenotyping (Tcm, stemness markers) of activated Pmel T cells; format: cell-based, mouse
Excerpt: It was next determined if restoring H2S levels in activated T cells would alter their phenotype. To achieve steady-state levels of H2S in the T cell culture media, water-soluble H2S donor GYY4137 that slowly releases sustained levels of H2S up to 7 days in culture was used (Lee Z. W., et al., 2011, PLOS One, 6(6):e21077).

[10] = tested on: Cbs-KO T cells; assay: Cbs-KO T cells activated with anti-CD3/anti-CD28 with or without H2S

C1COCCN1.COc1ccc(P(=S)(S)N2CCOCC2)cc1 (stereo not drawn) [GYY4137]
duration of sustained H2S release [1]: up to 7 days
mitochondrial organization and morphology (confocal) ([2]; control vs H2S-treated): more compact and continuous mitochondria
mitochondrial mass (mitoFM staining) ([2]; expanded to day 5): increased overall mitochondrial mass
mitochondrial membrane potential (TMRM staining) ([2]; expanded to day 5): decreased mitochondrial membrane potential
mitochondrial reactive oxygen species (mitoSOX staining) ([2]; expanded to day 5): decreased mitochondrial reactive oxygen species
GM130 expression [3]: significantly higher GM130 expression
PD1 expression [3]: lower PD1 expression
oxidative stress-induced increase of phospho-PERK, phospho-IRE1a, ATF4 [4]: this increase was mitigated
Tet activity [5]: decrease of Tet activity
basal respiration [6]: did not alter basal respiration
maximal respiration [6]: significant increase
spare respiratory capacity (SRC) [6]: significant increase
significantly upregulated pathways [7]: pathways related to immune receptor activity, T cell signaling, and cytokine activity
transcriptomic profile (PCA) [7]: distinct transcriptomic profile
Golgi organization (giantin, confocal) [8]: more compact Golgi organization
maintenance of increase in Tcm phenotype over time ([9]; FACS at day 0, 2, 4, 6, GYY4137 0.5 mM): consistently maintained over six days
expression of Tcf7 and Sca1 (stemness markers) ([9]; GYY4137 0.5 mM, 3 days): significantly enhanced the expression of Tcf7 and Sca1
Tcm phenotype (CD62L+CD44+ co-expression) ([9]; Pmel T cells activated with gp100 + IL2, GYY4137 0.5 mM, compared to IL2 alone): significant increase in the Tcm phenotype
expression of Foxo1 (intranuclear staining) ([10]; Cbs-KO T cells +/− GYY4137): restored
ER stress (pPERK) ([10]; Cbs-KO T cells, 12 hour Thapsigargin (700 nM)): reduced
Tcm fraction ([10]; H2S added to Cbs-KO T cells): restoration of the Tcm fraction
